A word on the MIC: it is the smallest concentration in the dilution series that meets the test's criterion for growth inhibition. One may read the IC50 as the concentration needed to halve the response being measured.

Data on 5 molecules can be found in patent publication US9481639B2, “Substituted tetracycline compounds for treatment of inflammatory skin disorders” (Paratek Pharmaceuticals, Inc., priority 2006, dated 2016).

For data set [1], the system named is B. thetaiotaomicron ATCC 29741. As to the kind of experiment: Antibacterial MIC, CLSI broth microdilution. Format: cell-based. As to the method: (§1) Gram (−) and gram (+) antibacterial minimum inhibitory concentration (MIC) values (μg/mL) were obtained using CLSI methodology for anti-bacterial susceptibility testing. On each day of testing, serial dilutions of compounds were prepared in microdilution plates using a Tecan robotic workstation. Mueller Hinton broth cultures of representative sensitive and resistant gram negative strains were grown or adjusted to match the turbidity of a 0.5 McFarland standard. 1:200 dilutions were made in an appropriate broth (cation supplemented Mueller Hinton broth) to allow a final inoculum of 1×10^5 cfu. Plates were incubated at 35° C. in ambient air for 18-24 hours, were read spectrophotometrically and checked manually for evidence of bacterial growth. The lowest dilution of compound that inhibited growth was recorded as the MIC. Lysed horse blood was used to supplement broth for testing S. pneumoniae. The MIC's for each compound were assessed against S. aureus, S. pneumoniae, P. acnes, E. coli and B. theta.

For data set [2], the system named is carrageenan induced rat paw inflammation. Description: Rat carrageenan-induced paw edema inflammatory model. Format: in vivo. Conditions: for 50% effective concentration (EC50), carrageenan induced paw inflammation: IP 30 minutes before carrageenan, paw volume 3 hours after. As to the method: The model used a sub-plantar injection of carrageenan in the rat to induce an inflammatory response. The test compound or saline (control) was administered IP 30 minutes before a subplantar injection of carrageenan (1.5 mg/0.1 mL). Paw volume was measured […] before subplantar injection and again 3 hours after the injection of carrageenan using a plethysmometer. Significant differences as determined by a Kruskal-Wallis One Way ANOVA are noted between the inflammation of the untreated controls versus treated animals […]
A general note: Carrageenan injected into the paw causes an acute inflammation.

The next data set deals with E. coli ATCC 25922. As to the kind of experiment: Antibacterial MIC, CLSI broth microdilution. Format: cell-based. Conditions: Escherichia coli, ATCC25922; 35° C., 18-24 hours. As to the method:
as §1

The test system of the next data set is E. coli MG. 1655. As to the kind of experiment: Antibacterial MIC, CLSI broth microdilution. Format: cell-based. Conditions: Escherichia coli, 35° C., 18-24 hours. How it is done: as §1
(In general: Dilution methods test growth across graded concentrations, often in twofold steps.)

The next data set concerns P. acnes ATCC 11827. As to the kind of experiment: Antibacterial MIC, CLSI broth microdilution. Conditions: Cutibacterium acnes, ATCC11827. Format: cell-based. As to the method:
as §1

The subject of another data set is P. acnes ATCC 6919. Description: Antibacterial MIC, CLSI broth microdilution. Format: cell-based. Conditions: Cutibacterium acnes, ATCC6919. As to the method: as §1
The subject of data set [3] is S. aureus RN450. As to the kind of experiment: Antibacterial MIC, CLSI broth microdilution. Format: cell-based. Conditions: Staphylococcus aureus, 35° C., 18-24 hours. As to the method:
as §1

Data set [4] deals with S. pneumoniae 157E - Strep. Description: Antibacterial MIC, CLSI broth microdilution. Conditions: Streptococcus pneumoniae, 157ESTREP; broth supplemented with lysed horse blood. Format: cell-based. How it is done:
as §1

The nature of another data set: in vitro. Format: cell-based. How it is done: Mammalian cell cytotoxicity was assessed to evaluate potential in vivo risks associated with the tetracycline compounds of the invention. A soluble, non-toxic redox dye (“Resazurin”; Alamar Blue) was used to assess a tetracycline compound's effect on cellular metabolism. At the onset of the experiment, cultures of mammalian COS-1 or CHO cells were washed, trypsinized, and harvested. […] On the next day, serial dilutions of test drug were prepared under sterile conditions and transferred to cell plates. Plates were then incubated under the above conditions for 24 hours. Following the incubation period, the media/drug was aspirated, and 50 μL of resazurin was added. Plates were then incubated under the above conditions for 2 hours and then in the dark at room temperature for an additional 30 minutes. Fluorescence measurements were taken (excitation 535 nm, emission 590 nm) and toxic effects in treated versus control cells were compared based on the degree of fluorescence in each well.

The subject of data set [5] is S. aureus RN450. As to the kind of experiment: In vivo anti-bacterial activity, S. aureus lethal infection model. Conditions: Staphylococcus aureus, sc, mice; for ED50: lethal IP S. aureus RN450, subcutaneous, 24 hours, read-out: PD50 (dose that protects 50% of the animals); for responders at 5 mg/kg: lethal IP S. aureus RN450, single subcutaneous dose 5 mg/kg, survival at 24 hours, read-out: Percent Survival. How it is done: Groups of five mice were injected intraperitoneally with a lethal dose of S. aureus RN450 in a medium of mucin. Mice were evaluated at 24 hours to determine survival. […] In some instances, a dose response study was performed with the compound such that a PD50 (a dose of compound that protects 50% of the animals) could be calculated.

The mark [6] stands for this setting: Bacteroides thetaiotaomicron, ATCC29741, read-out: MIC B. thetaiotaomicron ATCC 29741.
Setting [7] is: Bacteroides thetaiotaomicron, ATCC29741; read-out: MIC B. thetaiotaomicron ATCC 29741.

In brackets after ≈: the same amount, converted by molar mass. Where two headings read alike, the source gives them in different places. Where only a bound is given, the exact number is not on record here.

As for `C[C@H]1c2cccc(O)c2C(=O)C2=C(O)[C@]3(O)C(=O)C(C(N)=O)=C(O)[C@@H](N(C)C)[C@@H]3[C@@H](O)[C@@H]21` [Doxycycline, reference compound], the minimal inhibitory concentration (MIC) in data set [1] (setting [6]) lay in the range of 4 to 8 µg/mL (≈ 9 to 18 µM). The “50% effective concentration (EC50), carrageenan induced paw inflammation” value in [2] is given as “approximately 50 mg/kg”.
As to `CN(C)[C@@H]1C(O)=C(C(N)=O)C(=O)[C@@]2(O)C(O)=C3C(=O)c4cccc(-c5cnccn5)c4C[C@H]3C[C@@H]12` [Compound W, (4S,4aS,5aR,12aS)-4-Dimethylamino-3,12,12a-trihydroxy-1,11-dioxo-7-pyrazin-2-yl-1,4,4a,5,5a,6,11,12a-octahydro-naphthacene-2-carboxylic acid amide], the minimal inhibitory concentration (MIC) was > 8 µg/mL in data set [1] (setting [7]); > 8 µg/mL against E. coli ATCC 25922; > 8 µg/mL with E. coli MG. 1655; < 4 µg/mL in the data set on P. acnes ATCC 11827; < 4 µg/mL in the data set with P. acnes ATCC 6919; < 4 µg/mL against S. aureus RN450 [3]. Moreover, the MIC in data set [4] was < 4 µg/mL. Also, the IC50 at 24 h in the data set “in vitro” (African green monkey) and in the data set “in vitro” (Chinese hamster) was > 75 µg/mL throughout. For the same molecule, the ED50 in the data set with S. aureus RN450 [5] turned out to be 1.08 mg/kg.
For the molecule `CC(=NOC(C)(C)C)c1cc(N)c(O)c2c1C[C@H]1C[C@H]3[C@H](N(C)C)C(O)=C(C(N)=O)C(=O)[C@@]3(O)C(O)=C1C2=O` [Compound Q, (4S,4aS,5aR,12aS)-9-Amino-7-(1-tert-butoxyimino-ethyl)-4-dimethylamino-3,10,12,12a-tetrahydroxy-1,11-dioxo-1,4,4a,5,5a,6,11,12a-octahydro-naphthacene-2-carboxylic acid amide], the minimal inhibitory concentration (MIC) in [1] (setting [7]) is 4 to 8 µg/mL (≈ 7.37 to 14.7 µM); against E. coli ATCC 25922, 4 to 8 µg/mL (≈ 7.37 to 14.7 µM); in the data set on E. coli MG. 1655 it was 4 to 8 µg/mL (≈ 7.37 to 14.7 µM); in the data set with P. acnes ATCC 11827 it was < 4 µg/mL; against P. acnes ATCC 6919, < 4 µg/mL; against S. aureus RN450 [3], < 4 µg/mL. In addition, in [4], the minimal inhibitory concentration (MIC) was < 4 µg/mL. Further, the IC50 at 24 h in “in vitro” (African green monkey) and in “in vitro” (Chinese hamster) was < 35 µg/mL throughout. Further, the responders at 5 mg/kg in the data set with S. aureus RN450 [5] worked out at 100%. For the same molecule, the ED50 in the data set on S. aureus RN450 [5] was found to be 0.45 mg/kg.
For the molecule `CCO/N=C(/C)c1ccc(O)c2c1CC1CC3[C@H](N(C)C)C(O)=C(C(N)=O)C(=O)[C@@]3(O)C(O)=C1C2=O` (stereo partly drawn) [Compound A], the minimum inhibitory concentration (MIC) in [1] (setting [7]) was > 8 µg/mL; against E. coli ATCC 25922 it was < 4 µg/mL; in the data set with E. coli MG. 1655, 4 to 8 µg/mL (≈ 8.01 to 16 µM); in the data set with P. acnes ATCC 11827, < 4 µg/mL; in the data set on P. acnes ATCC 6919, < 4 µg/mL; with S. aureus RN450 [3] it was < 4 µg/mL. Besides, in data set [4], the minimal inhibitory concentration (MIC) is < 4 µg/mL. The half-maximal inhibitory concentration (IC50) at 24 h in the data set “in vitro” (African green monkey) and in the data set “in vitro” (Chinese hamster) was < 35 µg/mL throughout. Moreover, the responders at 5 mg/kg in the data set with S. aureus RN450 [5] came to 100%. The “modulation of carrageenan induced inflammation compared with reference tetracycline” value in data set [2] (IP, various doses, A vs doxycycline (FIG. 1), P vs minocycline (FIG. 2)) is “improved activity”.
Regarding `CN(C)c1ccc(O)c2c1C[C@H]1C[C@H]3[C@H](N(C)C)C(O)=C(C(N)=O)C(=O)[C@@]3(O)C(O)=C1C2=O` [Minocycline, reference compound], the MIC in data set [1] (setting [6]) fell in the range of 4 to 8 µg/mL (≈ 8.74 to 17.5 µM). The “50% effective concentration (EC50), carrageenan induced paw inflammation” value in [2] is “approximately 50 mg/kg”.
